Source: US8809342B2, “Glucagon receptor modulators” (Pfizer Inc., priority 2010, dated 2014)

Biological target: T1, human glucagon receptor (Homo sapiens, UniProt P47871)
T1 construct: expressed in transfected cells; host or cells: CHO-K1 cells, stably transfected
Experiment: Glucagon cAMP assay (Cisbio cAMP detection)
Format: cell-based
Experimental: The Cisbio cAMP detection assay is used to determine the ability of punitive glucagon antagonist to block glucagon induced cAMP production. Potential glucagon antagonists are re-suspended and diluted in 100% DMSO. Prior to use in the Glucagon cAMP assay 100×DMSO compound stocks are diluted 20× with DMEM-F12 media (Invitrogen) containing either 0.1% or 4% BSA. 2 uls of 5× compound stocks are spotted into the appropriate wells of low binding white solid bottom 384 well plates (Corning). 2 uls of 5% DMSO or known glucagon antagonist are added to each plate to define the assay window. CHOK1 cells stably transfected with the human glucagon receptor are removed from culture flasks with cell dissociation buffer. Cell pellets are re-suspended, at a concentration of 8.3e^5 cells/ml in DMEM-F12 with or without 4% BSA and 200 uM IBMX. 6 uls of cell suspensions are added to the assay plates. Plates are incubated for 20 min at room temperature prior to the addition of a 100 pM challenge dose of glucagon. On a separate plate glucagon dose response curves are run to determine the EC50 of glucagon. After a 30 min room temperature incubation the reaction is terminated by the addition of lysis buffer containing the cAMP detection reagents. Plates are incubated for an additional 60 min at room temperature prior to being read on the Perkin Elmer fluorescent plate reader. Raw is converted to nM of cAMP produced based on a cAMP standard curve. Converted data is then analyzed using the Pfizer data analysis program. IC50 values are determined from the generated sigmoidal dose response curves. Kb values are the calculated using a modified Cheng-Prusoff equation.

T1 sequence (P47871 26-477): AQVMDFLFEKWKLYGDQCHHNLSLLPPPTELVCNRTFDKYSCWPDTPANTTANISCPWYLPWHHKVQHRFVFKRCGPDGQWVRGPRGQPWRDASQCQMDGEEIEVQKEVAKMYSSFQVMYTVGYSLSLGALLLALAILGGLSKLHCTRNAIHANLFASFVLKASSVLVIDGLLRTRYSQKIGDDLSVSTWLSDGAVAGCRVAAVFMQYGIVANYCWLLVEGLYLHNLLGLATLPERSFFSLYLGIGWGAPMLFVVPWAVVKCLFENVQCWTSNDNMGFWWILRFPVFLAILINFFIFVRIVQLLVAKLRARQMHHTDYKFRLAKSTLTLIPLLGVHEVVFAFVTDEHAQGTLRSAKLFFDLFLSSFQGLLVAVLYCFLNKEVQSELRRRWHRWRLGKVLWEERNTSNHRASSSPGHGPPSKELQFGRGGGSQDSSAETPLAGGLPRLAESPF

Row | Kb [nM] | SMILES
1 | 580 | CC(C)CC(Nc1ccc(C(=O)NCCC(=O)O)cn1)c1ccc(-c2ccccc2Cl)cc1 (racemic) [Example 1.44, (+/−)-3-(6-(1-(2′-chlorobiphenyl-4-yl)-3-methylbutylamino)nicotinamido)propanoic acid]
2 | 620 | CC(C)CC(Nc1ccc(C(=O)NCCC(=O)O)cn1)c1ccc(-c2ccc(C#N)cc2)cc1 (racemic) [Example 1.45, (+/−)-3-(6-(1-(4′-cyanobiphenyl-4-yl)-3-methylbutylamino)nicotinamido)propanoic acid]
3 | 92 | CCOc1ccc(-c2ccc(C(CC(C)C)Nc3ccc(C(=O)NCCC(=O)O)cn3)cc2)cc1 (racemic) [Example 1.46, (+/−)-3-(6-(1-(4′-ethoxybiphenyl-4-yl)-3-methylbutylamino)nicotinamido)propanoic acid]
4 | 180 | COc1cccc(-c2ccc(C(CC(C)C)Nc3ccc(C(=O)NCCC(=O)O)cn3)cc2)c1 (racemic) [Example 1.47, (+/−)-3-(6-(1-(3′-methoxybiphenyl-4-yl)-3-methylbutylamino)nicotinamido)propanoic acid]
5 | 1200 | Cc1cccc(C)c1-c1ccc(C(CC(C)C)Nc2ccc(C(=O)NCCC(=O)O)cn2)cc1 (racemic) [Example 1.48, (+/−)-3-(6-(1-(2′,6′-dimethylbiphenyl-4-yl)-3-methylbutylamino)nicotinamido)propanoic acid]
6 | 750 | Cc1ccc(C)c(-c2ccc(C(CC(C)C)Nc3ccc(C(=O)NCCC(=O)O)cn3)cc2)c1 (racemic) [Example 1.49, (+/−)-3-(6-(1-(2′,5′-dimethylbiphenyl-4-yl)-3-methylbutylamino)nicotinamido)propanoic acid]
7 | 70 | Cc1ccc(-c2ccc(C(CC(C)C)Nc3ccc(C(=O)NCCC(=O)O)cn3)cc2)cc1 (racemic) [Example 1.50, (+/−)-3-(6-(3-methyl-1-(4′-methylbiphenyl-4-yl)butylamino)nicotinamido)propanoic acid]
8 | 160 | CC(C)CC(Nc1ccc(C(=O)NCCC(=O)O)cn1)c1ccc(-c2ccc(F)cc2)cc1 (racemic) [Example 1.51, (+/−)-3-(6-(1-(4′-fluorobiphenyl-4-yl)-3-methylbutylamino)nicotinamido)propanoic acid]
9 | 120 | COc1ccc(-c2ccc(C(CC(C)C)Nc3ccc(C(=O)NCCC(=O)O)cn3)cc2)cc1 (racemic) [Example 1.52, (+/−)-3-(6-(1-(4′-methoxybiphenyl-4-yl)-3-methylbutylamino)nicotinamido)propanoic acid]
10 | 46 | CC(C)CC(Nc1ccc(C(=O)NCCC(=O)O)cn1)c1ccc(-c2ccc(Cl)cc2)cc1 (racemic) [Example 1.53, (+/−)-3-(6-(1-(4′-chlorobiphenyl-4-yl)-3-methylbutylamino)nicotinamido)propanoic acid]
11 | 230 | CCc1ccc(-c2ccc(C(CC(C)C)Nc3ccc(C(=O)NCCC(=O)O)cn3)cc2)cc1 (racemic) [Example 1.54, (+/−)-3-(6-(1-(4′-ethylbiphenyl-4-yl)-3-methylbutylamino)nicotinamido)propanoic acid]
12 | 4800 | CC(C)CC(Nc1ccc(C(=O)NCCC(=O)O)cn1)c1ccc(-c2ccccn2)cc1 (racemic) [Example 1.55, (+/−)-3-(6-(3-methyl-1-(4-(68yridine-2-yl)phenyl)butylamino)nicotinamido)propanoic acid]
13 | 5000 | CC(C)CC(Nc1ccc(C(=O)NCCC(=O)O)cn1)c1ccc(-c2ccc(C(=O)N(C)C)cc2)cc1 (racemic) [Example 1.56, (+/−)-3-(6-(1-(4′-(dimethylcarbamoyl)biphenyl-4-yl)-3-methylbutylamino)nicotinamido)propanoic acid]
14 | 120 | CC(C)CC(Nc1ccc(C(=O)NCCC(=O)O)cn1)c1ccc(-c2ccc(C(C)C)cc2)cc1 (racemic) [Example 1.57, (+/−)-3-(6-(1-(4′-isopropylbiphenyl-4-yl)-3-methylbutylamino)nicotinamido)propanoic acid]
15 | 120 | CC(C)CC(Nc1ccc(C(=O)NCCC(=O)O)cn1)c1ccc(-c2ccc(OC(F)(F)F)cc2)cc1 (racemic) [Example 1.58, (+/−)-3-(6-(3-methyl-1-(4′-(trifluoromethoxy)biphenyl-4-yl)butylamino)nicotinamido)propanoic acid]
16 | 1500 | CC(C)CC(Nc1ccc(C(=O)NCCC(=O)O)cn1)c1ccc(-c2ccc(S(C)(=O)=O)cc2)cc1 (racemic) [Example 1.59, (+/−)-3-(6-(3-methyl-1-(4′-(methylsulfonyl)biphenyl-4-yl)butylamino)nicotinamido)propanoic acid]
17 | 280 | CC(C)CC(Nc1ccc(C(=O)NCCC(=O)O)cn1)c1ccc(-c2ccc(C(F)(F)F)nc2)cc1 (racemic) [Example 1.60, (+/−)-3-(6-(3-methyl-1-(4-(6-(trifluoromethyl)pyridin-3-yl)phenyl)butylamino)nicotinamido)propanoic acid]
18 | 38 | Cc1cc(NC(CC(C)C)c2ccc(C(=O)NCCC(=O)O)cn2)cc(C)c1-c1ccc(C(F)(F)F)cc1 (racemic) [Example 2.1, (+/−)-3-(6-(1-(2,6-dimethyl-4′-(trifluoromethyl)biphenyl-4-ylamino)-3-methylbutyl)nicotinamido)propanoic acid]
19 | 300 | CC(C)CC(Nc1ccc(-c2ccc(C(F)(F)F)cc2)cc1)c1ccc(C(=O)NCCC(=O)O)cn1 (racemic) [Example 2.4, (+/−)-3-(6-(3-methyl-1-(4′-(trifluoromethyl)biphenyl-4-ylamino)butyl)nicotinamido)propanoic acid]
20 | 280 | CC(C)CC(Nc1ccc(-c2ccc(C(F)(F)F)cc2)nc1)c1ccc(C(=O)NCCC(=O)O)cn1 (racemic) [Example 2.7, (+/−)-3-(6-(3-methyl-1-(6-(4-(trifluoromethyl)phenyl)pyridin-3-ylamino)butyl)nicotinamido)propanoic acid]
21 | 130 | Cc1cc(NC(CC(C)C)c2ccc(C(=O)NCCC(=O)O)cn2)cnc1-c1ccc(C(F)(F)F)cc1 (racemic) [Example 2.8, (+/−)-3-(6-(3-methyl-1-(5-methyl-6-(4-(trifluoromethyl)phenyl)pyridin-3-ylamino)butyl)nicotinamido)propanoic acid]
22 | 820 | CCCC(Nc1cnc(-c2ccc(C(F)(F)F)cc2)c(C)c1)c1ccc(C(=O)NCCC(=O)O)cn1 (racemic) [Example 2.9, (+/−)-3-(6-(1-(5-methyl-6-(4-(trifluoromethyl)phenyl)pyridin-3-ylamino)butyl)nicotinamido)propanoic acid]
23 | 1700 | CC(Nc1ccc(-c2ccc(C(F)(F)F)cc2)cc1)c1ccc(C(=O)NCCC(=O)O)cn1 (racemic) [Example 2.10, (+/−)-3-(6-(1-(4′-(trifluoromethyl)biphenyl-4-ylamino)ethyl)nicotinamido)propanoic acid]
24 | 1800 | CCC(Nc1cnc(-c2ccc(C(F)(F)F)cc2)c(C)c1)c1ccc(C(=O)NCCC(=O)O)cn1 (racemic) [Example 2.11, (+/−)-3-(6-(1-(5-methyl-6-(4-(trifluoromethyl)phenyl)pyridin-3-ylamino)propyl)nicotinamido)propanoic acid]
25 | 730 | CC(C)CC(Nc1ccc(-c2ccc(C(F)(F)F)cc2)cc1)c1ccc(C(=O)NCc2nnn[nH]2)cn1 (racemic) [Example 2.12, (+/−)-N-((1H-tetrazol-5-yl)methyl)-6-(3-methyl-1-(4′-(trifluoromethyl)biphenyl-4-ylamino)butyl)nicotinamide]
